Assay results from patent US20030109443A1, “Diagnosing, treating, and preventing cancer using cables” (priority 2001, published 2003).

Columns and labels:
[1] = system: Cables mRNA levels in Ishikawa cells; experiment: Cables mRNA after hormone treatment, Ishikawa cells; assay type: cell-based; conditions: vs untreated controls
Description: (§1) Cell lines have been used to investigate the effect of hormonal regulation on Cables expression, as well as the effect of Cables overexpression on these cells. We have isolated RNA and protein from HES, Ishikawa, and SK-UT2 endometrial cells lines for analysis. The influence of progesterone and estrogen on Cables expression was evaluated in these cells. […] Western analysis confirmed that a protein product was present. Conversely, estrogen reduced the levels of Cables mRNA expression in these cell lines (FIG. 16A). There is was no hormonal effect on Cables mRNA expression in SK-UT2 cells, which are derived from a G3 human uterine cancer (FIGS. 15B and 16B).

[2] = system: Cables mRNA levels in HES cells; experiment: Northern analysis of Cables mRNA after hormone treatment, HES cells; assay type: cell-based, human; conditions: vs untreated controls
Text: FIGS. 15A and 15B are images showing northern analysis of Cables mRNA levels in HES cells (FIG. 15A) and SK-UT2 cells (FIG. 15B) following progesterone treatment.
FIGS. 16A and 16B are images showing northern analysis of Cables mRNA levels in HES cells (FIG. 16A) and SK-UT2 cells (FIG. 16B) following progesterone or estrogen treatment.
as §1

cdk2 = cdk2 (UniProt P24941); experiment: cell-based or functional assay

Wee1, sequence (P30291 whole entry): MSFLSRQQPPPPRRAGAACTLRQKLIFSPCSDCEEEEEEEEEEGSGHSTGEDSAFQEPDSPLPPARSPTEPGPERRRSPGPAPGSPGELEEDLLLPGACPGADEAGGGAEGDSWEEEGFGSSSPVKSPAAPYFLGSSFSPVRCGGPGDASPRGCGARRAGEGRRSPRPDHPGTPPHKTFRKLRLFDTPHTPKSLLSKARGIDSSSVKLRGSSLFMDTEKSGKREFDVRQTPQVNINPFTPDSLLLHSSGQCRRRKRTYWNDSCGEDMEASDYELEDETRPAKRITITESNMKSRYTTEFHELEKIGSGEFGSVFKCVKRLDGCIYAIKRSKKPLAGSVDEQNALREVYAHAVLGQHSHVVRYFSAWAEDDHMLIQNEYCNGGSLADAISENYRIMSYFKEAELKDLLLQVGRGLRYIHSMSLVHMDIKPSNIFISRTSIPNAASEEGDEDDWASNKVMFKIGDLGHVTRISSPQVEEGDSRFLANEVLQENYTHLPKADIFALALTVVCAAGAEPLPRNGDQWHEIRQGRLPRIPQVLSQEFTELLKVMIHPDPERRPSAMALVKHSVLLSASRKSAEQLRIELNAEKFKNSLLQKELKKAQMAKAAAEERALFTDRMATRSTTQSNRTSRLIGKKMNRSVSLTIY
Cables (full length, expressed from a transfected construct), sequence (Q9ESJ1 whole entry): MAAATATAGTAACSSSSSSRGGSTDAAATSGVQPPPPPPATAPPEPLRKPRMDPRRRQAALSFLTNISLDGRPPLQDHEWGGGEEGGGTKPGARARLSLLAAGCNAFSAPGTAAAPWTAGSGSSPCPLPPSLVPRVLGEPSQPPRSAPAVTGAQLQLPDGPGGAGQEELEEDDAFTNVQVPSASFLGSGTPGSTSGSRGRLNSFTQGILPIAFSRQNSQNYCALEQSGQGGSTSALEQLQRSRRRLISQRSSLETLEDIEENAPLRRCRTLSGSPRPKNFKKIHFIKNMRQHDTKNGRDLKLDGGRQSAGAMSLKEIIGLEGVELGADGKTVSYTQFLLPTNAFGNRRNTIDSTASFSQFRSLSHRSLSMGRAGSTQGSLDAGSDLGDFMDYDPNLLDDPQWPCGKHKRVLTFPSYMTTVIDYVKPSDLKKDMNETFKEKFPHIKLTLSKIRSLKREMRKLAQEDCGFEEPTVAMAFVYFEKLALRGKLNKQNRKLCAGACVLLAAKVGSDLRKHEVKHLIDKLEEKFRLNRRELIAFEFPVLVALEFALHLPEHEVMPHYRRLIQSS

Compound	Cables mRNA levels [1]	Cables mRNA levels [2]	Y15-phosphorylated cdk2 in stable Cables cell lines against control cell lines (cdk2 immunoprecipitation, phospho-Tyr15 antibody) (cdk2)	level of tyrosine phosphorylation of cdk2 (cdk2 immunoprecipitation, antiphosphotyrosine western blot, COS7 cells coexpressing Cables and Wee1) (times basal level) (cdk2)
CC(=O)[C@H]1CC[C@H]2[C@@H]3CCC4=CC(=O)CC[C@]4(C)[C@H]3CC[C@]12C [Progestin, progesterone]	dose dependent elevation	dose dependent elevation	–	–
estrogen	reduced	reduced	–	–
Cables (full length, expressed from a transfected construct)	–	–	5 fold	–
Wee1 (from UniProt P30291 1-646) (enzyme)	–	–	–	30
